Data from patent US10106577B2, “Agonists of neurotrophin receptors and their use as medicaments” (BIONURE FARMA, S.L., priority 2010, dated 2018).

Key:
[1] = system: retinal ganglion cells (RGC); assay: Glaucoma model, count of retinal ganglion cells; type: in vivo, Sprague Dawley rats
Protocol: 12 Sprague Dawley rats (4 months of age) were anesthetized with […] and subjected to hypertonic saline solution injection into the episcleral vein of the right eye. Intraocular pressure (IOP) was measured before the operation and was monitored one time a week using a TonoLab for 7 weeks. Treatment with G79 was begun one week after glaucoma induction by topical application at the conjunctive. Two different experiments were performed.
In the first experiment, G79 was dissolved into physiological solution and was used at two different concentration (200 μg/ml and 400 μg/ml). NGF was used as positive control (200 μg/ml) and the physiological solution, used to dissolve all the molecules, was subministered as placebo. The animals were divided into 4 groups (3 animals in each group): glaucoma-G79 200 μg/ml; glaucoma-G79 […]; glaucoma-NGF; glaucoma-placebo. The left eye was used as the control without glaucoma. In both experiments, seven weeks after glaucoma induction, animals were sacrificed by overdose of anaesthetic and their eyes were taken and fixed in 4% of PFA. The eyes were included in paraffin and cut into 20 μm sections to be used for histological studies (hematoxilin-eosin staining). The cell count of the number of retinal ganglion cells (RGC) was performed randomly in ten different fields for each eye.
Rats were injected with a hypertonic solution in the eye that induced high intraocular pressure for five weeks. Animals were treated with eye drops of NGF ([…]), G79 ([…]) or placebo every day for five weeks. Animals with glaucoma and treated with placebo (saline) have a significant decrease in the number of retinal ganglion cells compared with control.
In the second experiment, G79 at the concentration of 200 μg/ml was used. The objective of this second experiment was to compare the efficacy of G79 to Timolol, the most common therapy for glaucoma that works by decreasing the intraocular pressure. Also in this experiment, a combination treatment with G79 and Timolol was performed. […]

TrkA = target: T1, TrkA (Rattus norvegicus, UniProt P35739); assay: Western blot analysis of receptor phosphorilation in PC12 cells; type: cell-based; settings: G79 100 ng/ml; 5-15-30-60 min
T1 construct: PC12 cells expressing both TrkA and p75 receptors were cultivated in normal growth medium; endogenous in cells; host or cells: PC12
T1 sequence (P35739 33-799): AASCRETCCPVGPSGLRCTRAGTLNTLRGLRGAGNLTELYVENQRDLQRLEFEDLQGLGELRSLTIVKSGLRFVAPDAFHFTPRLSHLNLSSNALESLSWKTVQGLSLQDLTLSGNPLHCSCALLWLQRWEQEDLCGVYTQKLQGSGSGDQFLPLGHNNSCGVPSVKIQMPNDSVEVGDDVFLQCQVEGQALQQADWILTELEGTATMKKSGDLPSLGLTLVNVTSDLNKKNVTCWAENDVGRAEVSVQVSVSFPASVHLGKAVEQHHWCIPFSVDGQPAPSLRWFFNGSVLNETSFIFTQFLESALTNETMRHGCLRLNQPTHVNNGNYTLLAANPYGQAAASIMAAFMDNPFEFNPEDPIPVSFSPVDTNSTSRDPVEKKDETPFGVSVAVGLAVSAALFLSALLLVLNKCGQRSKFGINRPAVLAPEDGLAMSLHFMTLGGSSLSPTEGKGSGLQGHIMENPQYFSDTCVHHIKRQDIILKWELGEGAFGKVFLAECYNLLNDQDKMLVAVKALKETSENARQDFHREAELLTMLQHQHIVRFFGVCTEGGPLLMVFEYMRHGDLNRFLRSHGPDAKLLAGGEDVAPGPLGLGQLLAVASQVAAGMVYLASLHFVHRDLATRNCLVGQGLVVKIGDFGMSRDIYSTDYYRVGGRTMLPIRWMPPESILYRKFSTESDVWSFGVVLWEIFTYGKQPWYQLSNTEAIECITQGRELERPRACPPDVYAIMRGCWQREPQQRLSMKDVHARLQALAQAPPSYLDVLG
Protocol: (§1) Neurotrophin receptors TrkA and TrkB activation (phosphorilation) was evaluated by Western-blot as follows: PC12 cell growing on 24-well plates were treated with low serum medium (0.5% FBS) to reduce the basal level of phosphorilation. After 24 h, the PC12 cells were treated with G79 (100 ng/ml), then recovered and lysated in 300 μl of ice-cold lysis buffer (Sigma Aldrich) at 5-15-30-60 min. After sonication, cell debris were removed by centrifugation (14000 rpm for 10 min) and equal amount of supernatant (30-35 μg/well) were loaded and separated by 10% polyacrilamide gel electrophoresis (PAGE) and then electrobloted onto PVDF membranes. Membranes were blocked by 5% nonfat milk and then sequentially incubated with the primary antibodies [phospho-TrkA, Tyr490 (Cell Signaling) or phospho-TrkB, Tyr515 (NovusBiological)] 1:1000 over-night and the secondary antibodies 1:2000, for 1 h at room temperature. Blots were processed for visualization by chemiluminescence system (Amersham) and exposed to Kodak film to visualize the fluorographic image.

TrkB = target: T2, TrkB (Rattus norvegicus, UniProt Q63604); assay: as above; type: cell-based; settings: G79 100 ng/ml; 5-15-30-60 min
T2 construct: endogenous in cells; host or cells: PC12
T2 sequence (Q63604 32-821): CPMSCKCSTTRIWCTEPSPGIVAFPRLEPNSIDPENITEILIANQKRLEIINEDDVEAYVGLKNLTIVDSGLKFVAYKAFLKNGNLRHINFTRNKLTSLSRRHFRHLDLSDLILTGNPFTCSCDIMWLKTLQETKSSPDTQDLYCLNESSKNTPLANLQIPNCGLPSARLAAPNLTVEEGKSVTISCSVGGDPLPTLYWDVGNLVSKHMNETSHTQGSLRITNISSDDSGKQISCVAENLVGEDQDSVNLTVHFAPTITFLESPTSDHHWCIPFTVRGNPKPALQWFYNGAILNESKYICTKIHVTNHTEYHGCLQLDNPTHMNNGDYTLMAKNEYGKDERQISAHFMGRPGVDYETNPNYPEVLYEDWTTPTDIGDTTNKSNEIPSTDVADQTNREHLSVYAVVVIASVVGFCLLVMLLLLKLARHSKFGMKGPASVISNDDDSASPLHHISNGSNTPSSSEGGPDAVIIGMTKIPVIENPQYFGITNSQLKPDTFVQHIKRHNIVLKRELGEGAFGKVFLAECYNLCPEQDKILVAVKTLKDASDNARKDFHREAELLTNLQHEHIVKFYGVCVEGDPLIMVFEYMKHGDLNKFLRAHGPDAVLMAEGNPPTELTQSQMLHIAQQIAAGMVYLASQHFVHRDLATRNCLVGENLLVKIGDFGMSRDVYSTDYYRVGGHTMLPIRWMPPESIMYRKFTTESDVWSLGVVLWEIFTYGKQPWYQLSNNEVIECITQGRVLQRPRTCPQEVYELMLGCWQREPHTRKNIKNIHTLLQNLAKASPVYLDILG
Protocol: as §1

mice affected by EAE = assay: Experimental autoimmune encephalomyelitis (EAE) model of MS; type: in vivo, C57BL/6 mice
Protocol: The effect of G79 was tested in the animal model of MS, the experimental autoimmune encephalomyelitis (EAE), by performing a preventive trial (in which the therapy starts at the time of the induction of the disease) and a curative trial (in which the therapy starts when the animals are already suffering from the disease). Female C57BL/6 mice from Harlan (8-12 weeks old) were immunized subcutaneously in both hind pads with 300 μg of myelin oligodendrocyte glycoprotein (MOG) peptide 35-55 (Spikem, Firenze) emulsified with 50 μg of Mycobacterium tuberculosis (H37Ra strain; Difco, Detroit, Mich.) in incomplete Freund's adjuvant (IFA) as previously described in Palacios et al., 2007. The mice were injected intraperitoneally with Pertussis toxin (Sigma) (500 ng) at the time of immunization and 2 days later. The animals were weighted and inspected for clinical signs of disease on a daily basis by a blinded observer. The severity of the disease EAE was assessed for 30 days according to the following scale: 0=normal; 0.5=mild limp tail; 1=limp tail; 2=mild paraparesis of the hind limbs, unsteady gait; 3=moderate paraparesis, voluntary movements still possible; 4=paraplegia or tetraparesis; 5=moribund state. At the end of the study, the mice were anesthetized and perfused intracardially with 4% of paraformaldehyde in 0.1 M phosphate buffer (pH 7.6). The brains, spinal cords and spleens were dissected and either fixed or frozen until use. Also serum was obtained from all the animals included in the study. This procedure was approved by the University of Barcelona Committee on Animal Care.
Two different experiments were performed to assess both the preventive effect and curative effect of G79, compared to other drugs targeting neurotrophin pathway (Gambogic amide and Xaliproden) or one of the first line therapy for the treatment of MS, i.e., Glatiramer acetate.
For the preventive trial, 10 animals were treated with intraperitoneal injection of G79 at the concentration of 40 mg/kg, 10 animals were treated with intraperitoneal injection of G79 at the concentration of 100 mg/kg, 10 animals were treated with intraperitoneal injection of Gambogic amide at the concentration of 2 mg/kg, 10 animals were treated with oral administration of Xaliproden at the concentration of 10 mg/kg. As both Gambogic amide and Xaliproden were diluted with different percentage of DMSO, 5 animals were treated with intraperitoneal injection of placebo (physiologic solution plus 1% DMSO) and other 5 animals were treated with placebo oral (physiologic solution plus 2.5% DMSO), respectively. The treatments were performed daily, starting after the immunization day.
For the curative trial, to reduce the discrepancy between the oral administration and intraperitoneal injections, as stress can deeply affect the development of the clinical scores in animals, all the treatments were performed by intraperitoneal injections. For this study, 8 animals were treated with G79 at the concentration of 40 mg/kg, 8 animals were treated with G79 at the concentration of 100 mg/kg, 8 animals were treated with Gambogic amide at the concentration of 2 mg/kg, 8 animals were treated with Xaliproden at the concentration of 10 mg/kg, 8 animals were treated with Glatiramer acetate at the concentration of 5 mg/kg, 8 animals were treated with placebo (physiologic solution plus 2.5% DMSO). The treatments were performed daily starting after the increase of the clinical score at score 2 (after the second day at this score).

[2] = preventive trial, 100 mg/Kg i.p.

What does the source list for `CC(C)CN(CC(=O)N(CCCN1CCCC1=O)CC(N)=O)C(=O)CNCCc1ccccc1F` [Compound G79, [N-(2-(2′-Fluorophenyl)ethyl)glycyl]-[N-(2-methylpropyl)glycyl]-N-[3-(2′-oxopyrrolidinyl)propyl]glycinamide]?
protection of retinal ganglion cells (number of RGC vs glaucoma-placebo) ([1]; first experiment, eye drops, NGF 200, G79 200 and 400 μg/ml): significant protection of the ganglion cells; protection of RGCs by the combination treatment ([1]; second experiment, G79 200 μg/ml in combination with Timolol): did not exert additive effect in protecting RGCs; TrkA phosphorilation (phospho-TrkA, Tyr490) (TrkA): phosphorilated already after 5 min; TrkB phosphorilation (phospho-TrkB, Tyr515) (TrkB): phosphorilated already after 5 min; therapeutic effect in ameliorating the clinical score (in words) (mice affected by EAE; curative trial, 100 mg/Kg i.p.): best therapeutic effect in ameliorating the clinical score; clinical score (mice affected by EAE; curative trial, 100 mg/Kg i.p., 16th day): 2.8±1.2; clinical score (mice affected by EAE; curative trial, 100 mg/Kg i.p., day 19th): 1.75±1; clinical score (mice affected by EAE; curative trial, 100 mg/Kg i.p., day not printed (between day 16th and 23rd)): 1.6±0.8; delaying the disease, comparison of the doses (mice affected by EAE; [2]): more effective in delaying the disease; final clinical score at day 30th (mice affected by EAE; [2]): lower compared to placebo treated animals; onset of the disease (clinical score) (mice affected by EAE; preventive trial, G79 40 and 100 mg/kg i.p. daily): delay in the presence of the disease, although not significant
